Experimental data published in ChEMBL document CHEMBL5154882, “Discovery of 4-Hydroxyquinazoline Derivatives as Small Molecular BET/PARP1 Inhibitors That Induce Defective Homologous Recombination and Lead to Synthetic Lethality for Triple-Negative Breast Cancer Therapy” (J Med Chem, 2022).
Activity calls are given as the source filed them. No cut-off for these calls is given here.

How the values were obtained:
MDA-MB-231 [1] = test: Antiproliferative activity against human MDA-MB-231 cells assessed as reduction in cell viability incubated for 72 hrs by MTT assay; assay type: functional, cell-based; settings: MDA-MB-231, 72 h
MDA-MB-231 [2] = test: Inhibition of homologous recombinant repair in human MDA-MB-231 cells assessed as down-regulation of Mre11 expression at 5 to 20 uM in by Western blot analysis; assay type: functional, cell-based; settings: dose 5-20 µM
[3] = Toxicity in BALB/c nude mouse xenografted with human MDA-MB-468 cells assessed as change in body weight at 80 mg/kg, ig administered daily for 16 days measured every 3 days; assay type: organism-based; settings: in vivo, po, 384 h, time 16 day
MDA-MB-468 [4] = test: Cell cycle arrest in human MDA-MB-468 cells assessed as accumulation at G0/G1 phase at 20 uM incubated for 72 hrs by propidium iodide staining-based flow cytometry analysis (reference value: 61.4%); assay type: functional
[5] = Oral bioavailability in Sprague-Dawley rat at 10 mg/kg; assay type: ADME, organism-based; settings: in vivo
[6] = Toxicity in BALB/c nude mouse xenografted with human MDA-MB-468 cells assessed as morphological changes in liver at 40 to 80 mg/kg, ig administered daily for 16 days measured every 3 days by hematoxyin-eosin staining based analysis; assay type: organism-based; settings: in vivo, po, 384 h, dose 40-80 mg/kg, time 16 day
MDA-MB-468 [7] = test: Induction of apoptosis in human MDA-MB-468 cells assessed as late apoptotic cells at 10 uM incubated for 72 hrs by annexin V/propidium iodide staining-based flow cytometry analysis (reference value: 1.34%); assay type: functional
[8] = Toxicity in BALB/c nude mouse xenografted with human MDA-MB-468 cells assessed as death at 40 to 80 mg/kg, ig administered daily for 16 days measured every 3 days; assay type: organism-based; settings: in vivo, po, 384 h, dose 40-80 mg/kg, time 16 day
MDA-MB-231 [9] = test: Antitumor activity against human MDA-MB-231 cells xenografted in BALB/c nude mouse assessed as reduction in c-Myc expression at 40 to 80 mg/kg incubated for 30 to 40 mins by immunohistochemical analysis; assay type: functional, organism-based; settings: dose 40-80 mg/kg, time 30-40 min
MDA-MB-468 [10] = test: Induction of apoptosis in human MDA-MB-468 cells assessed as up-regulation of cleaved caspase 3 protein level at 20 uM incubated for 72 hrs by Western blot analysis; assay type: functional, cell-based
MDA-MB-468 [11] = test: Induction of apoptosis in human MDA-MB-468 cells assessed as late apoptotic cells at 20 uM incubated for 72 hrs by annexin V/propidium iodide staining-based flow cytometry analysis (reference value: 1.34%); assay type: functional
[12] = Cmax in Sprague-Dawley rat at 1 mg/kg, iv; assay type: ADME, organism-based; design: dose 1 mg/kg, route iv; settings: in vivo
[13] = target: T1, Bromodomain-containing protein 4 (Homo sapiens, UniProt O60885); test: Inhibition of BRD4 BD1 (unknown origin)
[14] = Toxicity in BALB/c nude mouse xenografted with human MDA-MB-468 cells assessed as morphological changes in lung at 40 to 80 mg/kg, ig administered daily for 16 days measured every 3 days by hematoxyin-eosin staining based analysis; assay type: organism-based; settings: in vivo, po, 384 h, dose 40-80 mg/kg, time 16 day
[15] = target: T2, Poly [ADP-ribose] polymerase 1 (Homo sapiens, UniProt P09874); test: Inhibition of PARP1 (unknown origin) at 1 uM relative to control
MDA-MB-231 [16] = test: Antitumor activity against human MDA-MB-231 cells xenografted in BALB/c nude mouse assessed as downregulation of […] downstream protein at 40 mg/kg by Western blot analysis; assay type: functional, organism-based
[17] = AUC (0 to t) in Sprague-Dawley rat at 10 mg/kg, po; assay type: ADME, organism-based; design: dose 10 mg/kg, route po; settings: in vivo
MDA-MB-231 [18] = test: Antitumor activity against human MDA-MB-231 cells xenografted in BALB/c nude mouse assessed as downregulation of BRD4 downstream protein at 40 mg/kg by Western blot analysis; assay type: functional, organism-based
MDA-MB-231 [19] = test: Antitumor activity against human MDA-MB-231 cells xenografted in BALB/c nude mouse assessed as reduction in CtIp expression at 40 to 80 mg/kg incubated for 30 to 40 mins by immunohistochemical analysis; assay type: functional, organism-based; settings: dose 40-80 mg/kg, time 30-40 min
MDA-MB-468 [20] = test: Downregulation of c-Myc expression level in human MDA-MB-468 cells by Western blot analysis; assay type: functional, cell-based; settings: dose 5-20 µM, DDE = dose-dependent effect
[21] = target: T2, Poly [ADP-ribose] polymerase 1; test: Binding affinity to PARP1 in human MDA-MB-468 cells assessed as increase in thermal stability at 5 uM by cellular thermal shift assay; assay type: cell-based
MDA-MB-468 [22] = test: Inhibition of homologous recombinant repair in human MDA-MB-468 cells assessed as down-regulation of Rad51 expression at 5 to 20 uM by Western blot analysis; assay type: functional, cell-based; settings: dose 5-20 µM, DDE = dose-dependent effect
MDA-MB-468 [23] = test: Induction of apoptosis in human MDA-MB-468 cells assessed as early apoptotic cells at 5 uM incubated for 72 hrs by annexin V/propidium iodide staining-based flow cytometry analysis (reference value: 4.07%); assay type: functional
MDA-MB-468 [24] = test: Cell cycle arrest in human MDA-MB-468 cells assessed as accumulation at G2/M phase at 10 uM incubated for 72 hrs by propidium iodide staining-based flow cytometry analysis (reference value: 16.1%); assay type: functional
[25] = Toxicity in BALB/c nude mouse xenografted with human MDA-MB-468 cells assessed as morphological changes in kidney at 80 mg/kg, ig administered daily for 16 days measured every 3 days by hematoxyin-eosin staining based analysis; assay type: organism-based; settings: in vivo, po, 384 h, time 16 day
[26] = Apparent volume of distribution in Sprague-Dawley rat at 1 mg/kg, iv; assay type: ADME, organism-based; settings: in vivo
[27] = Toxicity in BALB/c nude mouse xenografted with human MDA-MB-468 cells assessed as morphological changes in heart at 40 to 80 mg/kg, ig administered daily for 16 days measured every 3 days by hematoxyin-eosin staining based analysis; assay type: organism-based; settings: in vivo, po, 384 h, dose 40-80 mg/kg, time 16 day
MDA-MB-468 [28] = test: Downregulation of PARP1 expression level in human MDA-MB-468 cells by Western blot analysis; assay type: functional, cell-based; settings: dose 5-20 µM, DDE = dose-dependent effect
MDA-MB-468 [29] = test: Cell cycle arrest in human MDA-MB-468 cells assessed as accumulation at S phase at 20 uM incubated for 72 hrs by propidium iodide staining-based flow cytometry analysis (reference value: 21.1%); assay type: functional
MDA-MB-468 [30] = test: Downregulation of PAR expression level in human MDA-MB-468 cells by Western blot analysis; assay type: functional, cell-based; settings: dose 5-20 µM, DDE = dose-dependent effect
[31] = target: T1, Bromodomain-containing protein 4; test: Inhibition of BRD4 BD2 (unknown origin)
MDA-MB-468 [32] = test: Cell cycle arrest in human MDA-MB-468 cells assessed as accumulation at S phase at 10 uM incubated for 72 hrs by propidium iodide staining-based flow cytometry analysis (reference value: 21.1%); assay type: functional
[33] = Toxicity in BALB/c nude mouse xenografted with human MDA-MB-468 cells assessed as morphological changes in heart at 80 mg/kg, ig administered daily for 16 days measured every 3 days by hematoxyin-eosin staining based analysis; assay type: organism-based; settings: in vivo, po, 384 h, time 16 day
MDA-MB-231 [34] = test: Induction of DNA damage in human MDA-MB-231 cells assessed as increase in tail DNA measured at 5 to 20 uM after 3 days by comet assay; assay type: functional, cell-based; settings: dose 5-20 µM, time 3.0 day
MDA-MB-231 [35] = test: Antitumor activity against human MDA-MB-231 cells xenografted in BALB/c nude mouse assessed as downregulation of CtIP at 80 mg/kg by Western blot analysis; assay type: functional, organism-based
MDA-MB-468 [36] = test: Induction of apoptosis in human MDA-MB-468 cells assessed as early apoptotic cells at 20 uM incubated for 72 hrs by annexin V/propidium iodide staining-based flow cytometry analysis (reference value: 4.07%); assay type: functional

T2 sequence (P09874 whole entry): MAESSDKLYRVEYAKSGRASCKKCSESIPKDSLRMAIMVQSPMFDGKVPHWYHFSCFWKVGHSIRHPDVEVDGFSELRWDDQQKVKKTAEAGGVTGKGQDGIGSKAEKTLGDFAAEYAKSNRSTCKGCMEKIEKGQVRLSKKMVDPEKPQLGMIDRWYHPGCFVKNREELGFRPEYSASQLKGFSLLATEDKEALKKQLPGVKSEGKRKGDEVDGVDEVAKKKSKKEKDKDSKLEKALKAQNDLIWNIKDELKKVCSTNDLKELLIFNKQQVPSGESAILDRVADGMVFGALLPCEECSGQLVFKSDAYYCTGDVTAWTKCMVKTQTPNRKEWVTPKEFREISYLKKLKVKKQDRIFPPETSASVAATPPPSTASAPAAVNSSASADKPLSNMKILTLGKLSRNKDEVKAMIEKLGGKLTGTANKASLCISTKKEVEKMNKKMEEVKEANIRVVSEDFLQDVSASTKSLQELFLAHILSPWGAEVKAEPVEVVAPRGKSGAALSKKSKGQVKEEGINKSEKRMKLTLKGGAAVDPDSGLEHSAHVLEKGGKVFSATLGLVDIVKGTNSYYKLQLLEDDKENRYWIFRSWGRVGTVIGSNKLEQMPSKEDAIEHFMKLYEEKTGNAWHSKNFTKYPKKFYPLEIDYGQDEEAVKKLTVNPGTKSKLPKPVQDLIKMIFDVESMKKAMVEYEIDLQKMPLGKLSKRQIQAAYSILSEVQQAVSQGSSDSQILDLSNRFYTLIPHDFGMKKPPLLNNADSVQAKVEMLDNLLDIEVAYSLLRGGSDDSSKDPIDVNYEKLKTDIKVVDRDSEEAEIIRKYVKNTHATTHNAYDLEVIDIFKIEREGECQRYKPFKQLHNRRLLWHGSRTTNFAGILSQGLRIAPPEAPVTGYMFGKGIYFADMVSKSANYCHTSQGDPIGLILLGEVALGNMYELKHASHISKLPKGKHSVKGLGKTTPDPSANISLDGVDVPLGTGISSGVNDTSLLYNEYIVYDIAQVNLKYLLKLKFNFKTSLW

COc1cc(OC)c2c(=O)[nH]c(-c3cccc(Cc4n[nH]c(=O)c5ccccc45)c3)nc2c1
IC50 (MDA-MB-231 [1]): 6610 nM | Activity (MDA-MB-231 [2]): Active | Activity [3]: Non-Toxic | Activity (MDA-MB-468 [4]): 74.3% | bioavailability [5]: 23.8% | Activity [6]: Non-Toxic | Activity (MDA-MB-468 [7]): 4.94% | Activity [8]: Non-Toxic | Activity (MDA-MB-231 [9]): Active | Activity (MDA-MB-468 [10]): Active | Activity (MDA-MB-468 [11]): 6.18% | Cmax [12]: 258 ng/mL | IC50 [13]: 251 nM | Activity [14]: Non-Toxic | inhibition [15]: 79.2% | Activity (MDA-MB-231 [16]): Active | AUC(0-t) [17]: 1490 ng·h/mL | Activity (MDA-MB-231 [18]): Active | Activity (MDA-MB-231 [19]): Active | Activity (MDA-MB-468 [20]): Dde | Activity [21]: Active | inhibition (MDA-MB-468 [22]): Dde | Activity (MDA-MB-468 [23]): 21.47% | Activity (MDA-MB-468 [24]): 14.5% | Activity [25]: Non-Toxic | Vz [26]: 21.1 L/kg | Activity [27]: Non-Toxic | Activity (MDA-MB-468 [28]): Dde | Activity (MDA-MB-468 [29]): 12.4% | Activity (MDA-MB-468 [30]): Dde | IC50 [31]: 175 nM | Activity (MDA-MB-468 [32]): 22.8% | Activity [33]: Non-Toxic | Activity (MDA-MB-231 [34]): Active | Activity (MDA-MB-231 [35]): Active | Activity (MDA-MB-468 [36]): 28.26%
